Earlier results as cited in PMC8763792, “Pharmacokinetic/Pharmacodynamic Based Breakpoints of Polymyxin B for Bloodstream Infections Caused by Multidrug-Resistant Gram-Negative Pathogens” (Frontiers in Pharmacology, 2022).
Where two headings read alike, the source gives them in different places. Positions of bridges follow the written chain, without caps; N, C: chain ends. Non-standard residues stand in square brackets, D forms with d. Residues, ends and D or L forms follow the SMILES beside them. *: point of attachment. X1 = CC[C@H](C)CCCCC(=O)*; Dab = NCC[C@H](N)C(=O)O

Legend:
[1] = test system: K. pneumoniae; conditions: dash in Table S1 explained, ref Landersdorfer, C.B., 2018
Description: Supplement DataSheet1.zip/Table 1.DOCX, table 1: Table S1.

[2] = test system: extensively-drug resistant Gram-negative bacteria; conditions: polymyxin B-based regimens 100-200 mg/day, ≥5 days; bloodstream infection; ref Zhao et al., 2020
Description: This is in agreement with othe ...

[3] = Description: The area under the unbound concentration-time curve over 24 h to the MIC ratio (fAUC0–24h/MIC) is the most predictive PK/PD index for polymyxins ([Tam et al., 2005]; [Bergen et al., 2008]; [Bergen et al., 2010]; [Cheah et al., 2015]; [Landersdorfer et al., 2018]). PK/PD targets of 1-log10 CFU and 2-log10 CFU reductions in colony forming units (CFU)/thigh were derived from dose-fractionation studies of polymyxin B (K. pneumoniae) and colistin (P. aeruginosa and A. baumannii) in murine thigh infection models (Supplementary Table S1; [Cheah et al., 2015]; [Landersdorfer et al., 2018]). Given poly ... || The recommended dose of intravenously administered polymyxin B throughout much of the world is 1.5–2.5 mg/kg/day with a loading dose of 2–2.5 mg/kg ([Tsuji et al., 2019]). In China, the only brand of polymyxin B currently available has a recommended intravenous dose of 50–100 mg/day (Polymyxin B for injection ([Daily Med, 2017]), equivalent to 0.83–1.66 mg/kg/day (0.42–0.83 mg/kg/12 h) for a 60 kg patient. Importantly, [Lakota et al. (2018)] proposed that for pathogens with MICs ≤2 mg/L, the target AUC0–24h,ss for polymyxin B should be 50–100 mg h/L. In our study, the polymyxin B AUC0–24h,ss a ...
[4] = critically-ill patients, ref Sandri et al., 2013, Nation et al., 2017
Description: Removal of the “susceptible” interpretation category for polymyxins by CLSI was driven primarily by lung infection data ([He et al., 2013]; [Landersdorfer et al., 2018]). […] For bloodstream infections, the average steady-state concentrations (C ss,avg) achieved with intravenously administered polymyxin B (0.45–3.38 mg/kg/day) or CMS (2–18 MIU/day) are 2–3 mg/L (polymyxin B and colistin) in critically-ill p ...

[5] = test system: A. baumannii or A. calcoaceticus; conditions: 3,124 isolates, 45 nations, 1997-2016; ref Diekema et al., 2019
Description: (§1) However, the success of this regimen will depend on regional susceptibility data. According to the SENTRY antimicrobial surveillance program for bloodstream infections (data collected from 45 nations including China between 1997 and 2016) ([Diekema et al., 2019]), the MIC90 of colistin for P. aeruginosa (7,107 isolates), A. baumannii or A. calcoaceticus ...

[6] = test system: P. aeruginosa; conditions: 7,107 isolates, 45 nations, 1997-2016; ref Diekema et al., 2019
Description: as §1

[7] = test system: Enterobacteriaceae; conditions: 54,476 isolates, 45 nations, 1997-2016; ref Diekema et al., 2019
Description: as §1

Compound	PK/PD target fAUC0-24h/MIC, 2-log10 CFU killing [1]	28-day all-cause mortality [2] [%]	Clearance rate of microorganisms [2] [%]	Overall effectiveness (cure or improvement) [2] [%]	Unbound fraction (f) in plasma ([3]; plasma, ref Sandri et al., 2013) [%]	Protein binding ([3]; ref Zavascki et al., 2008)	Average steady-state concentration (Css,avg) ([4]; intravenous polymyxin B 0.45-3.38 mg/kg/day) [ng/mL]	MIC90 [5] [µg/mL]	MIC90 [6] [µg/mL]	MIC90 [7] [µg/mL]	Average steady-state concentration (Css,avg) ([4]; colistin after intravenous CMS 2-18 MIU/day) [ng/mL]
CC[C@H](C)CCCCC(=O)N[C@@H](CCN)C(=O)N[C@H](C(=O)N[C@@H](CCN)C(=O)N[C@H]1CCNC(=O)[C@H]([C@@H](C)O)NC(=O)[C@H](CCN)NC(=O)[C@H](CCN)NC(=O)[C@H](CC(C)C)NC(=O)[C@@H](Cc2ccccc2)NC(=O)[C@H](CCN)NC1=O)[C@@H](C)O [polymyxin B] (X1-[Dab]T[Dab][Dab][Dab][dF]L[Dab][Dab]T; lactam 4-C (inferred); N-terminus assumed)	unable to produce a 2-log10 CFU decrease	41.0	65.2	59.0	42	78.5–92.4%	2000 to 3000	–	–	–	–
colistin	–	–	–	–	–	–	–	2	2	> 4	2000 to 3000
